Here are results for eight molecules from PubChem BioAssay (NCI).

For orientation: GI50 means the concentration that inhibits growth by half. By TGI is commonly meant the concentration giving total growth inhibition. A low value points to more potent growth arrest.

“And” between values parts separate entries of the source, which are not always exact repeats. Equal entries are not always repeated.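 Cells were grown in 96-well plates and exposed to each compound for 48 hours at five concentrations; endpoints were interpolated linearly between bracketing concentrations, or set to the highest concentration if not reached. The concentration for 50% growth inhibition is given as GI50. TGI denotes the concentration required for complete inhibition of growth.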

Some test systems named below: 786-0 renal; DU-145 prostate; HOP-92 NSCLC; HT29 colon; IGROV1 ovarian; MDA-MB-231 breast; NCI-H522 lung; SK-MEL-2 melanoma; SR leukemia; U251 CNS.
What all share (assay): DTP human tumour cell line panel, 48 h

On to `c1ccc([As]=[As]c2ccccc2)cc1` (stereo unspecified), for which the GI50 in the assay with 786-0 renal was 1.28 µM; with DU-145 prostate it was 1.66 µM; in the assay on HOP-92 NSCLC, 1.22 µM; in the assay with HT29 colon, 1.74 µM; in the assay on IGROV1 ovarian, 0.666 µM; in the assay with MDA-MB-231 breast, 0.88 µM. The GI50 was 1.09 µM in the assay with NCI-H522 lung, 1.62 µM in the assay with SK-MEL-2 melanoma, 0.302 µM in the assay with SR leukemia and 0.752 µM with U251 CNS. Moreover, the total growth inhibition concentration (TGI) is 3.19 µM with 786-0 renal; 3.32 µM in the assay on DU-145 prostate; 3.08 µM with HOP-92 NSCLC; 3.61 µM in the assay with HT29 colon; 2.76 µM in the assay on IGROV1 ovarian; 2.21 µM in the assay with MDA-MB-231 breast. The concentration for total growth inhibition (TGI) in the assay on NCI-H522 lung worked out at 2.42 µM; in the assay with SK-MEL-2 melanoma, 3.47 µM; in the assay on SR leukemia it was 1.95 µM; in the assay with U251 CNS, 2.05 µM.

Consider `CN(C)c1ccc(C(c2ccc(Cl)cc2)c2ccc(N(C)C)cc2)cc1`, for which the TGI with 786-0 renal, in the assay with DU-145 prostate, with HOP-92 NSCLC, in the assay with HT29 colon, in the assay with IGROV1 ovarian and with MDA-MB-231 breast was > 100 µM each time. Besides, the TGI with NCI-H522 lung, in the assay with SK-MEL-2 melanoma, in the assay with SR leukemia and in the assay on U251 CNS was > 100 µM each time.

Turning to `CN1CCN(CCOc2cc(OC3CCOCC3)c3c(Nc4c(Cl)ccc5c4OCO5)ncnc3c2)CC1`, the GI50 in the assay with 786-0 renal was 4.47 µM and > 10 µM; in the assay on DU-145 prostate, 3.72 µM and 7.29 µM; with HOP-92 NSCLC, 0.679 µM and 0.139 µM; in the assay on HT29 colon it was 0.634 µM and 1.26 µM; with IGROV1 ovarian, 0.244 µM and 0.204 µM; in the assay on MDA-MB-231 breast it was 6.95 µM and 8.97 µM. Moreover, the GI50 in the assay with NCI-H522 lung was 0.165 µM and 0.346 µM; in the assay on SK-MEL-2 melanoma it was 16.6 µM and > 10 µM; in the assay on SR leukemia it was 9.63 µM and 5.98 µM; in the assay on U251 CNS, 11.2 µM and > 10 µM. Besides, the TGI was 24.1 µM and > 10 µM in the assay with 786-0 renal; 39.7 µM and > 10 µM in the assay with DU-145 prostate; 11.4 µM and 5.64 µM in the assay on HOP-92 NSCLC; 5.47 µM and > 10 µM with HT29 colon; 2.72 µM and 3.05 µM in the assay with IGROV1 ovarian; 24.1 µM and > 10 µM in the assay on MDA-MB-231 breast. Also, the TGI in the assay on NCI-H522 lung was 2.5 µM and > 10 µM; in the assay with SK-MEL-2 melanoma it was 31.8 µM and > 10 µM; in the assay with SR leukemia, 37.4 µM and > 10 µM; in the assay with U251 CNS it was 31.1 µM and > 10 µM.

Turning to `CCOC(=O)/C=C/C(=O)[C@H](CC(C)C)NC(=O)[C@H](Cc1ccccc1)NC(=O)OCc1ccccc1`, the GI50 was 1.84 µM with 786-0 renal; 3.1 µM with DU-145 prostate; 2.56 µM in the assay on HOP-92 NSCLC; 5.44 µM in the assay with HT29 colon; 2.32 µM in the assay on IGROV1 ovarian; 2.92 µM in the assay with MDA-MB-231 breast. Also, the GI50 in the assay on NCI-H522 lung is 2.1 µM; in the assay with SK-MEL-2 melanoma it was 13.8 µM; in the assay with SR leukemia, 2.39 µM; with U251 CNS, 13.2 µM. Besides, the total growth inhibition concentration (TGI) with 786-0 renal was determined as 3.4 µM; with DU-145 prostate, 11.5 µM; with HOP-92 NSCLC it was 6.99 µM; with HT29 colon, 38.6 µM; with IGROV1 ovarian, 4.89 µM; with MDA-MB-231 breast it was 6.35 µM. The TGI in the assay with NCI-H522 lung came to 4.37 µM; in the assay with SK-MEL-2 melanoma it was 27.1 µM; in the assay on SR leukemia, 6.32 µM; in the assay with U251 CNS it was 27.2 µM.

With `COc1ccc(Cn2cc3c(c2-c2ccccc2)CCc2cnoc2-3)cc1N`, the GI50 with 786-0 renal was 0.602 µM; in the assay on DU-145 prostate, 0.21 µM; with HT29 colon, 1.78 µM; with IGROV1 ovarian, 0.329 µM; in the assay with MDA-MB-231 breast, 1.03 µM; in the assay on NCI-H522 lung, 0.027 µM. In addition, the concentration for 50% growth inhibition (GI50) with SK-MEL-2 melanoma is 0.273 µM; in the assay on SR leukemia it was 0.0528 µM; in the assay on U251 CNS it was 0.287 µM. Moreover, the TGI with 786-0 renal was > 100 µM; in the assay on DU-145 prostate, 1.27 µM; in the assay with HT29 colon, 15.1 µM; with IGROV1 ovarian, > 100 µM; in the assay with MDA-MB-231 breast, > 100 µM; with NCI-H522 lung, 0.339 µM. The figures for the total growth inhibition concentration (TGI) in the assay on SK-MEL-2 melanoma, with SR leukemia and in the assay on U251 CNS were > 100 µM, 4.25 µM and > 100 µM, respectively.

`Oc1[nH]c2ccccc2c1N=Nc1c(F)c(F)c(F)c(F)c1F`: the total growth inhibition concentration (TGI) with 786-0 renal is 50.5 µM; in the assay with DU-145 prostate, > 100 µM; with HT29 colon it was > 100 µM; in the assay on IGROV1 ovarian, > 100 µM; in the assay with MDA-MB-231 breast it was > 100 µM; with NCI-H522 lung, 47.7 µM. The figures for the total growth inhibition concentration (TGI) in the assay on SK-MEL-2 melanoma, in the assay with SR leukemia and in the assay on U251 CNS were > 100 µM, 14.4 µM and > 100 µM, respectively.

With `C#COc1cccc(Nc2ncnc3cc(NC(=O)[C@H](C)Cl)ccc23)c1`, the GI50 is 3.24 µM with 786-0 renal; 6.09 µM with DU-145 prostate; > 62.5 µM in the assay on HOP-92 NSCLC; 2.21 µM with HT29 colon; 2.35 µM in the assay with IGROV1 ovarian; 3.75 µM in the assay on MDA-MB-231 breast. Moreover, the GI50 in the assay with NCI-H522 lung was 1.67 µM; in the assay with SR leukemia, 2.87 µM; with U251 CNS, 2.84 µM. The TGI in the assay with 786-0 renal, with DU-145 prostate, with HOP-92 NSCLC, in the assay on HT29 colon, in the assay with IGROV1 ovarian and with MDA-MB-231 breast was > 62.5 µM throughout. For the same molecule, the concentration for total growth inhibition (TGI) is 8.29 µM in the assay with NCI-H522 lung, > 62.5 µM in the assay on SR leukemia and > 62.5 µM with U251 CNS.

Turning to `COc1cc(C2C3=C(COC3=O)N(CCO)c3cc4c(cc32)OCO4)cc(OC)c1O` (stereo unspecified), the GI50 in the assay on 786-0 renal is 2.02 µM; in the assay with DU-145 prostate it was 1.58 µM; in the assay on HT29 colon it was 1.38 µM; with IGROV1 ovarian, 1.47 µM; in the assay with MDA-MB-231 breast it was 6.07 µM; in the assay with NCI-H522 lung, 0.0267 µM. Moreover, the GI50 was 0.611 µM with SR leukemia and 2.19 µM in the assay with U251 CNS. In addition, the total growth inhibition concentration (TGI) with 786-0 renal was > 50 µM; with DU-145 prostate, 7.22 µM; with HT29 colon, 5.32 µM; in the assay with IGROV1 ovarian it was 6.08 µM; in the assay on MDA-MB-231 breast it was 46.2 µM; with NCI-H522 lung, 0.289 µM. The TGI in the assay with SR leukemia is > 11.9 µM; in the assay on U251 CNS, > 50 µM.
